Experimental data taken from patent publication US7605175B2, “Inhibitors of cyclin-dependent kinases, compositions and uses related thereto” (GPC Biotech AG, priority 2001, dated 2009).

Legend:
Conditions in all cases: Table 6
Cdc2/cyclin B = target: T1, Cdc2/cyclin B (Homo sapiens, UniProt P06493); experiment: Biochemical kinase assay Cdc2/cyclin B
T1 construct: purchased
From the text: (§1) Enzymes: Cdc2/cyclin B was obtained from commercial sources. Cdk2/his-cyclin Eshort was expressed in Sf9 cells. Cdk2/cyclin A, cdk4/cyclin D1, and cdk6/cyclin D2 were expressed in Sf9 cells. Protein kinase A (catalytic subunit, from bovine heart) and protein kinase C (mixed isozymes from rat brain) were obtained from commercial sources.
(§2) Substrates: Histone H1 was from commercial sources. GST-Rb is glutathione-S-trans-ferase fused to the N-terminal of residues 379-928 of the Rb protein.
Assays: Cdc2/cyclinB activity was determined by measuring incorporation of radio-activity from adenosine [γ-^32P]triphosphate into Histone H1 using a TCA precipitation assay. Cdc2/cyclin B kinase and Histone H1 were obtained from commercial sources. The final assay solution contained 50 mM Tris.HCl, 10 mM MgCl2, 1 mM dithiothreitol, 50 μM adenosine triphosphate, 2 μCi ^32P, 10% dimethylsulfoxide (from compounds), pH 7.5, 20 μg Histone H1, 6 U enzyme in a 50 μL volume. Compounds were added at various concentrations between 1 nM and 10 μM. The reaction was started with the addition of enzyme, allowed to proceed for 20 min at 30° C., and stopped by the addition of 20 μL of stop solution (237 mM disodium ethylenediamine tetraacetate, 105 mM adenosine triphosphate, pH 8.0). The protein was precipitated by the addition of 35 μL 70% (w/v) trichloroacetic acid, and the precipitate was captured on a 96-well glass fiber filter plate (Millipore, Inc.), which had been wet with 25% (w/v) trichloroacetic acid. The filter was washed ten times with 25% (w/v) trichloroacetic acid, and the amount of incorporated ^32P was determined by scintillation counting after adding 100 μL scintillant (Microscint 20, Packard Instruments). Relative activity was determined by dividing the amount of radioactivity incorporated in the presence of compound by the amount of radioactivity incorporated in a control experiment containing DMSO alone but no compound. The background radioactivity, determined in an experiment containing 50 mM EDTA in place of compound, was subtracted from all results before calculations.

Cdk2/cyclin E = target: T2, Cdk2/cyclin E (Homo sapiens, UniProt P24941); experiment: Biochemical kinase assay Cdk2/cyclin E
T2 construct: made in house; host or cells: Sf9 insect cells
From the text: as §1, §2
(§3) Cdk2/cyclin E, Cdk2/cyclin A, Cdk4/cyclin D1, and Cdk6/cyclin D2 activity was determined using a glutathione-sepharose capture assay. The enzymes were expressed in Sf9 insect cells as heterodimers, and the substrate (GST-Rb) was glutathione-S-transferase fused to residues 379 to 928 of Rb retinoblastoma protein, expressed in E. coli. The assay solution contained 50 mM Tris.HCl, 10 mM MgCl2, 1 mM dithiothreitol, 50 μM adenosine triphosphate, 2 μCi [γ-^33P]adenosine triphosphate, 10% dimethylsulfoxide (from compounds), pH 7.5, 40 μg GST-Rb, and enzyme in a 100 μL volume. Compounds were added at various concentrations between 1 nM and 10 μM. The reaction was allowed to proceed for 15 min at 30° C. and was stopped by the addition of 70 μL of stop solution (237 mM disodium ethylene-diamine tetraacetate, 105 mM adenosine triphosphate, pH 8.0). The GST-Rb was captured by binding to glutathione-sepharose bead (Amersham) for 110 min, and the suspension was filtered through a glass fiber filter. After washing the retained beads five time with phosphate-buffered saline containing 0.3% (w/v) Tween-20, the amount of ^33P incorporated was determined by scintillation counting after adding 100 μL scintillant. Relative activity was determined by dividing the amount of radioactivity incorporated in the presence of compound by the amount of radioactivity incorporated in a control experiment containing DMSO alone but no compound. The background radioactivity, determined in an experiment containing 50 mM disodium ethylenediamine tetraacetate in place of compound, was subtracted from all results before calculations.

Cdk4/cyclin D1 = target: T3, Cdk4/cyclin D1 (Homo sapiens, UniProt P11802); experiment: Biochemical kinase assay Cdk4/cyclin D1
T3 construct: made in house; host or cells: Sf9 insect cells
From the text: as §1, §2, §3

T1 sequence (P06493 whole entry, species assumed): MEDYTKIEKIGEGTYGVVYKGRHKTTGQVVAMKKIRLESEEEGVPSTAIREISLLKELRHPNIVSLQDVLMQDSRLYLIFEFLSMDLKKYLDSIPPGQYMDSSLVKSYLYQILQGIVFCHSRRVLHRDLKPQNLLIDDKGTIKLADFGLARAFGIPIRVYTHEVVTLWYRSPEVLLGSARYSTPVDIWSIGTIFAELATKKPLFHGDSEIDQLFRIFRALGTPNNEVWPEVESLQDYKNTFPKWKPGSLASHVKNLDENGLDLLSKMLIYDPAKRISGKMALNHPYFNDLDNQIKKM
T1 sequence (P14635 whole entry partner, species assumed): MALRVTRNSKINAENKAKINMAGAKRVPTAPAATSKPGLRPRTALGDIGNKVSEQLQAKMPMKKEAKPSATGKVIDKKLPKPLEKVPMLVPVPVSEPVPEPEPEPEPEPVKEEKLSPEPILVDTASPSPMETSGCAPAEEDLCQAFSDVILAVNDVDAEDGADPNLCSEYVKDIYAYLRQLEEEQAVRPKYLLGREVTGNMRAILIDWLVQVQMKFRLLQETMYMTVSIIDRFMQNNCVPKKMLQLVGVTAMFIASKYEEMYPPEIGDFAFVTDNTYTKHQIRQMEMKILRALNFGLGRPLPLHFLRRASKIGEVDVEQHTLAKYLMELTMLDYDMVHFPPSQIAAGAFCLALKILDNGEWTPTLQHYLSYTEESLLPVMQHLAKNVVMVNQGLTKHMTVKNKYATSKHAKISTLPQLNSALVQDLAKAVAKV
T3 sequence (P11802 whole entry, species assumed): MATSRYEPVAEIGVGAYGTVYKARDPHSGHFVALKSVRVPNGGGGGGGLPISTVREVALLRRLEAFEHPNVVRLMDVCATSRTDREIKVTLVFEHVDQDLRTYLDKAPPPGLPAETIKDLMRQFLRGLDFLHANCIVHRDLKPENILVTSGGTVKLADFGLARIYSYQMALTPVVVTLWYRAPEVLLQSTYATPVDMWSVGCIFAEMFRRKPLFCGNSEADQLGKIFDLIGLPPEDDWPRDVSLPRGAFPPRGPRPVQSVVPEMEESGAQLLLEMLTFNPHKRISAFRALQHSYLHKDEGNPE
T3 sequence (P24385 whole entry partner, species assumed): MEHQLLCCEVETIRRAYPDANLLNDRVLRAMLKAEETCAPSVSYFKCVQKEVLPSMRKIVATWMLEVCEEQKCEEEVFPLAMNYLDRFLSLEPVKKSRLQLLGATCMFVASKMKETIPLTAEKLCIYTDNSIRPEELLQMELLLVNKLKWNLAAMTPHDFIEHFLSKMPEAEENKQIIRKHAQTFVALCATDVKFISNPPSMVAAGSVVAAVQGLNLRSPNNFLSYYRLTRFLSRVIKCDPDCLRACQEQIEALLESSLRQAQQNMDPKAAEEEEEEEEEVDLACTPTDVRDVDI

IC50 (Cdc2/cyclin B)	IC50 (Cdk2/cyclin E)	IC50 (Cdk4/cyclin D1)	Compound
< 100 nM	< 10 nM	< 100 nM	CN(C)C(=O)COc1ccc(-c2[nH]nc3c2C(=O)c2c(NC(=O)NN4CCOCC4)cccc2-3)cc1 [Compound A34]
–	< 10 nM	–	O=C(Nc1cccc2c1C(=O)c1c(-c3ccc(CNC(CO)CO)cc3)n[nH]c1-2)NN1CCOCC1 [Compound B1]
< 100 nM	–	–	O=C(Nc1cccc2c1C(=O)c1c(-c3ccc(CNCc4cccnc4)cc3)n[nH]c1-2)NN1CCOCC1 [Compound B12]
< 100 nM	< 100 nM	< 100 nM	CC(C)C(N)C(=O)OCCN1CCN(NC(=O)Nc2cccc3c2C(=O)c2c-3n[nH]c2-c2ccc(OCCN3CCCC3)cc2)CC1 (stereo not shown) [Compound A33]
< 10 nM	< 10 nM	< 100 nM	CC(C)N1CCN(S(=O)(=O)c2ccc(-c3[nH]nc4c3C(=O)c3c(NC(=O)NN5CCOCC5)cccc3-4)cc2)CC1 [Compound A57]
< 100 nM	–	–	O=C(Nc1cccc2c1C(=O)c1c(-c3ccc(CN4CC[C@@H](O)C4)cc3)n[nH]c1-2)NN1CCOCC1 [Compound B8]
< 100 nM	< 100 nM	–	O=C(Nc1cccc2c1C(=O)c1c(-c3ccc(CN4CCOCC4)cc3)n[nH]c1-2)NN1CCOCC1 [Compound A47]
< 100 nM	< 100 nM	< 100 nM	CCOC(=O)CN1CCN(NC(=O)Nc2cccc3c2C(=O)c2c-3n[nH]c2-c2ccc(OCCN3CCCC3)cc2)CC1 [Compound A26]
< 100 nM	–	–	CCOC(=O)C1CCN(Cc2ccc(-c3n[nH]c4c3C(=O)c3c(NC(=O)NN5CCOCC5)cccc3-4)cc2)CC1 [Compound B9]
< 100 nM	< 100 nM	< 100 nM	CC(C)OC(=O)CN1CCN(NC(=O)Nc2cccc3c2C(=O)c2c-3n[nH]c2-c2ccc(OCCN3CCCC3)cc2)CC1 [Compound A40]
–	< 100 nM	–	O=C(Nc1cccc2c1C(=O)c1c(-c3ccc(CN4CCN(c5ccccn5)CC4)cc3)n[nH]c1-2)NN1CCOCC1 [Compound A82]
< 100 nM	< 100 nM	–	CN1CCN(Cc2ccc(-c3n[nH]c4c3C(=O)c3c(NC(=O)NN5CCOCC5)cccc3-4)cc2)CC1 [Compound A49]
–	< 100 nM	–	O=C(Nc1cccc2c1C(=O)c1c(-c3ccc(CN4CCN(c5cccc(C(F)(F)F)c5)CC4)cc3)n[nH]c1-2)NN1CCOCC1 [Compound B7]
< 100 nM	–	–	O=C(Nc1cccc2c1C(=O)c1c(-c3ccc(CNCCO)cc3)n[nH]c1-2)NN1CCOCC1 [Compound B10]
< 10 nM	< 100 nM	–	O=C(Nc1cccc2c1C(=O)c1c(-c3ccc(CN4CCN(CCO)CC4)cc3)n[nH]c1-2)NN1CCOCC1 [Compound B3]
< 100 nM	–	–	O=C(Nc1cccc2c1C(=O)c1c(-c3ccc(CNCC(O)CO)cc3)n[nH]c1-2)NN1CCOCC1 (stereo not shown) [Compound B11]
< 100 nM	< 100 nM	–	O=C(Nc1cccc2c1C(=O)c1c(-c3ccc(OCc4nnn[nH]4)cc3)n[nH]c1-2)NN1CCOCC1 [Compound A74]
–	< 100 nM	–	O=C(Nc1cccc2c1C(=O)c1c(-c3ccc(CN4CCCC4)cc3)n[nH]c1-2)NN1CCOCC1 [Compound A51]
< 10 nM	< 100 nM	–	O=C(Nc1cccc2c1C(=O)c1c(-c3ccc(CN(CCO)CCO)cc3)n[nH]c1-2)NN1CCOCC1 [Compound B2]
–	< 100 nM	–	O=C(Nc1cccc2c1C(=O)c1c(-c3ccc(CN4CCC(O)CC4)cc3)n[nH]c1-2)NN1CCOCC1 [Compound B5]
–	< 100 nM	–	O=C(Nc1cccc2c1C(=O)c1c(-c3ccc(CN4CCC[C@H]4CO)cc3)n[nH]c1-2)NN1CCOCC1 [Compound B6]
–	< 100 nM	–	O=C(Nc1cccc2c1C(=O)c1c(-c3ccc(CNCCOCCO)cc3)n[nH]c1-2)NN1CCOCC1 [Compound B4]
< 100 nM	–	–	O=C(Nc1cccc2c1C(=O)c1c(-c3ccc(CNCc4ccccn4)cc3)n[nH]c1-2)NN1CCOCC1 [Compound B13]

Compound	IC50 (Cdc2/cyclin B)	IC50 (Cdk2/cyclin E)	IC50 (Cdk4/cyclin D1)
COc1ccc(Cc2nc3c(c(C(C)C)nn3-c3c(Cl)cccc3Cl)c(=O)[nH]2)cc1 [Compound A67]	< 100 nM	< 10 nM	–
